Results: patent US20240057587A1, “ORGANIC AMMONIUM SALT AND HYDROGEN-BONDING MATERIAL TREATMENT AGENT USING SAME” (MIYOSHI OIL & FAT CO.,LTD., priority 2019, published 2024)
Like-named read-outs stand apart in the source and are kept apart here.

Assays:
[1] = molecular target: T1, cytochrome C (Equus caballus, UniProt P00004); assay: Protein long-term stability (IR and UV spectrum), solid sample; parameters: species or system Horse
T1 construct: a reagent produced by NACALAI TESQUE, INC; (Horse Heart, molecular weight 12384) was used; purchased NACALAI TESQUE, INC; host or cells: horse heart (tissue origin)
T1 sequence (P00004 whole entry): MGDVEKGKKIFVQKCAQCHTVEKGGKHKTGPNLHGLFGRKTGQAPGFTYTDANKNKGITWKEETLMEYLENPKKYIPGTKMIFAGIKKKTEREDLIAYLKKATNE

[2] = molecular target: T2, urease (Canavalia ensiformis, UniProt P07374); type: biochemical, sword bean
T2 sequence (P07374 whole entry, looked up): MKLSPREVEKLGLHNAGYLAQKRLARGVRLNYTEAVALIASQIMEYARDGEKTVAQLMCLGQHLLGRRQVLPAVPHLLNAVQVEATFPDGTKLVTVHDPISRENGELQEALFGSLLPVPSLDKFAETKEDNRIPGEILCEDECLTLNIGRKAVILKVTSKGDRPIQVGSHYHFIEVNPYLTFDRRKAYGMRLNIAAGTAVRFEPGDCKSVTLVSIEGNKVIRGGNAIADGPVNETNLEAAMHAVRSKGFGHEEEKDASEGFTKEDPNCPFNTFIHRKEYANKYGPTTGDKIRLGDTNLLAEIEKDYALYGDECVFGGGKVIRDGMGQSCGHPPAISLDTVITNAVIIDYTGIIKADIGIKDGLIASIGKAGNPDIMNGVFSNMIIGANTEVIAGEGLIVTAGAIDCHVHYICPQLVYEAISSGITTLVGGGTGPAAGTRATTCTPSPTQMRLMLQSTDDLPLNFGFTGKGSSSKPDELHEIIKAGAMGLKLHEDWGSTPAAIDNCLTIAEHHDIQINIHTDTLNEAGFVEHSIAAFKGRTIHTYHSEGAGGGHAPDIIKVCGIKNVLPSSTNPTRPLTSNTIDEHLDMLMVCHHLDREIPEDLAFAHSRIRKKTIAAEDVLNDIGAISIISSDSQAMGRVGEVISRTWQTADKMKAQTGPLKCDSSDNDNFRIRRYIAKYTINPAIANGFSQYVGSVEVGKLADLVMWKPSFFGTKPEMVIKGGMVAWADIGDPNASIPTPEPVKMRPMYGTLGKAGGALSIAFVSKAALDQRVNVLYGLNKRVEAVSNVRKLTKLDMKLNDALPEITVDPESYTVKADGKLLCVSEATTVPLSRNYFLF

[3] = molecular target: T2, urease; type: biochemical, sword bean; remark: listed apart in the source
[4] = molecular target: T2, urease; type: biochemical, sword bean; remark: listed apart in the source
[5] = molecular target: T1, cytochrome C; assay: Protein long-term stability, 50% aqueous solution; parameters: species or system Horse
Procedure: At first, changes in amide absorption by IR spectrum were precisely observed, and there were confirmed the higher-order structures of protein (turn, α-helix, random coil, β-sheet). The amide I region (1,600 to 1,700 cm^−1) and the amide II region (1,500 to 1,600 cm^−1) were measured by ATR method using a Fourier transform infrared spectrophotometer (FT/IR-6100 by JASCO Corporation), and peaks were then detected based on a difference(s) between a cytochrome C-free organic ammonium salt sample (blank) and a cytochrome C-containing organic ammonium salt sample (sample).
Further, the activity state of cytochrome C (Fe^2+: reduced form, Fe^3+: oxidized form) was confirmed via absorptions in UV spectrum. The measurement was conducted using an ultraviolet-visible spectrophotometer and a quartz cell having an optical path width of 2 mm, immediately after diluting the cytochrome C-containing organic ammonium salt sample to 1% with a 50 mM phosphate buffer of pH 7.4 (prepared using 50 mM potassium dihydrogen phosphate and 50 mM dipotassium hydrogen phosphate).

[6] = cytochrome C, solid sample, 40° C., 80% RH, after 30 days, Stabilizer:Protein = 0.1:1
[7] = cytochrome C, solid sample, 40° C., 80% RH, after 30 days, Stabilizer:Protein = 1:1
[8] = cytochrome C, solid sample, 40° C., 80% RH, after 30 days, Stabilizer:Protein = 10:1
[9] = cytochrome C in 50 wt % aqueous solution of compound, 40° C., after 30 days, 1:1
[10] = urease in 50 wt % aqueous solution of compound, 40° C., 80% RH, after 30 days, Stabilizer:Enzyme = 1:1
[11] = urease, solid sample mixed by mortar, 40° C., 80% RH, after 30 days, 1:1
[12] = urease, solid sample, solvent distilled away from dissolution solution, 40° C., 80% RH, after 30 days, 1:1
[13] = solid sample, 40° C., 80% RH, after 30 days, Stabilizer:Enzyme = 0.1:1
[14] = solid sample, 40° C., 80% RH, after 30 days, Stabilizer:Enzyme = 1:1
[15] = solid sample, 40° C., 80% RH, after 30 days, Stabilizer:Enzyme = 10:1

Structure (SMILES)	Protein long-term stability (after 30 days) Stabilizer: Protein = 0.1:1 [1, 6]	Protein long-term stability (after 30 days) Stabilizer: Protein = 1:1 [1, 7]	Protein long-term stability (after 30 days) Stabilizer: Protein = 10:1 [1, 8]	Enzyme activity retention rate(%) (after 30 days) Stabilizer: Enzyme = 1:1 [2]	Enzyme activity retention rate (%) (after 30 days) Stabilizer:Enzyme = 1:1, Mixed by mortar [3]	Enzyme activity retention rate (%) (after 30 days) Stabilizer:Enzyme = 1:1, Solvent distilled away from dissolution solution [3]	Enzyme activity retention rate(%) (after 30 days) Stabilizer: Enzyme = 0.1:1 [4]	Enzyme activity retention rate(%) (after 30 days) Stabilizer: Enzyme = 1:1 [4]	Enzyme activity retention rate(%) (after 30 days) Stabilizer: Enzyme = 10:1 [4]	Protein long-term stability (after 30 days) Stabilize:Protein = 1:1 [5]	Protein long-term stability (after 30 days) Stabilizer: Protein = 0.1:1 [1]	Protein long-term stability (after 30 days) Stabilizer: Protein = 1:1 [1]	Protein long-term stability (after 30 days) Stabilizer: Protein = 10:1 [1]	Protein long-term stability (after 30 days) Stabilize:Protein = 1:1 [5, 9]	Enzyme activity retention rate(%) (after 30 days) Stabilizer: Enzyme = 1:1 [2, 10]	Enzyme activity retention rate (%) (after 30 days) Stabilizer:Enzyme = 1:1, Mixed by mortar [3, 11]	Enzyme activity retention rate (%) (after 30 days) Stabilizer:Enzyme = 1:1, Solvent distilled away from dissolution solution [3, 12]	Enzyme activity retention rate(%) (after 30 days) Stabilizer: Enzyme = 0.1:1 [4, 13]	Enzyme activity retention rate(%) (after 30 days) Stabilizer: Enzyme = 1:1 [4, 14]	Enzyme activity retention rate(%) (after 30 days) Stabilizer: Enzyme = 10:1 [4, 15]
O=C[C@H](O)[C@@H](O)[C@H](O)[C@H](O)CO [Comparative example 4, Glucose, reference compound]	×	×	×	0	0	0	0	0	0	–	–	–	–	–	–	–	–	–	–	–
Br.NC(CO)(CO)CO [Working example 78]	–	–	–	3	0	24	3	4	18	○ ○ ○	◯	◯	◯	–	–	–	–	–	–	–
NC(CO)(CO)CO [Working example 83]	◯	◯	◯	–	–	–	–	–	–	–	–	–	–	○ ○ ○	20	0	24	16	24	38
CCCCn1cc[n+](C)c1.[Br-] [Comparative example 3, BMI-Br, reference compound]	×	×	×	0	0	0	0	0	0	–	–	–	–	–	–	–	–	–	–	–
CC(O)C(=O)O.CCCCN(CCCC)CCCC [Comparative example 1, Tributyl Ammonium Lactate, reference compound]	–	–	–	0	0	0	0	0	0	–	×	×	×	–	–	–	–	–	–	–
NC(CO)(CO)CO [Working example 3]	◯	◯	◯	–	–	–	–	–	–	–	–	–	–	○ ○ ○	32	11	50	20	50	53
NCC(O)C(O)C(O)C(O)CO (stereo not drawn) [Working example 29]	◯	◯	◯	–	–	–	–	–	–	–	–	–	–	○	11	0	18	5	18	21
CC(=O)[O-].C[N+](C)(C)CCO [Comparative example 2, Choline Acetate, reference compound]	–	–	–	–	–	–	–	–	–	–	×	×	×	–	2	0	3	2	3	0
NC(CO)(CO)CO.O=C(O)c1ccccc1 [Working example 60]	–	–	–	–	–	–	–	–	–	○ ○ ○	◯	◯	◯	–	21	0	20	7	20	29
OCCNCCO [Working example 24]	◯	◯	◯	–	–	–	–	–	–	–	–	–	–	○	10	5	25	9	25	25
